According to patent US20060084688A1, “Aromatic sulfone hydroxamic acid metalloprotease inhibitor” (priority 1997, published 2006):
Where two headings read alike, the source gives them in different places.

Tests used:
[1] = system: human monocytic line U-937; type: cell-based
[2] = system: TNFrII; test: Tumor necrosis factor assay: TNF Receptor II ELISA on supernatant of PMA-stimulated U-937 cells; details: Homo sapiens, U-937, read-out: TNFRII Release IC50 in micromolar
[3] = target: T1, recombinant human MMP-1 (Homo sapiens, UniProt P03956); test: biochemical; details: Inhibition Table B
T1 construct: made in house; host or cells: transfected HT-1080 cells
T1 sequence (P03956 100-469): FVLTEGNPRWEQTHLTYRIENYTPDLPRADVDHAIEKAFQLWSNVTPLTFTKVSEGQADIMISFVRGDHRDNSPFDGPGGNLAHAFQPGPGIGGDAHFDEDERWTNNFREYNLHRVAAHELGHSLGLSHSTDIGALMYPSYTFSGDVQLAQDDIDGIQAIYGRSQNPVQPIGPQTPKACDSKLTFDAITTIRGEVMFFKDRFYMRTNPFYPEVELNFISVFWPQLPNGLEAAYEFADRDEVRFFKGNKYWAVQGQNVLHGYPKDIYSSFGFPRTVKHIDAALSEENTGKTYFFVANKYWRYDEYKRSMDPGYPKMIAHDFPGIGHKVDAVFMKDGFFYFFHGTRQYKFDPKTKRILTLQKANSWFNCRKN

[4] = target: recombinant human MMP-13 (Homo sapiens, UniProt P45452); test: biochemical; details: Inhibition Table B
[5] = target: T2, recombinant human MMP-2 (Homo sapiens, UniProt P08253); test: biochemical; details: Inhibition Table B
T2 sequence (P08253 110-660): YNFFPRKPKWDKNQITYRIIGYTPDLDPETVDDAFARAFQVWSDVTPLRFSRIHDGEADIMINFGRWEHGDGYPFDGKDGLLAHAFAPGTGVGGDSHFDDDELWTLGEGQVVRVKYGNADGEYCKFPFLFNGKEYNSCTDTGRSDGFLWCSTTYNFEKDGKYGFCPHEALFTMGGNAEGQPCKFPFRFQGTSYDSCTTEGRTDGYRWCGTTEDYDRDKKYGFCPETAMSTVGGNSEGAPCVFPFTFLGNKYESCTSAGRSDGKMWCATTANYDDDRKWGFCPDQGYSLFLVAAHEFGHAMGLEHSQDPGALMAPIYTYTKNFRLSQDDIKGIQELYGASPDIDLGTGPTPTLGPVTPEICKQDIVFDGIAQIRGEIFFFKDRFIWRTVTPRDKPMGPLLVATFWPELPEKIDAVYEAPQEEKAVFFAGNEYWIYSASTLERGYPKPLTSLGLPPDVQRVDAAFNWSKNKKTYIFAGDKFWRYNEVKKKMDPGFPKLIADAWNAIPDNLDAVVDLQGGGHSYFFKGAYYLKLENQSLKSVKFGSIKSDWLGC

[6] = system: advanced, rapidly progressive, treatment-refractory solid tumor cancers (colorectal, pancreatic, ovarian, prostate); details: Phase I/II, cited from earlier work
[7] = system: neovascularization of the corneal stroma; test: In vivo angiogenesis assay (corneal micropocket, bFGF/sucralfate Hydron pellet); set-up: species or system C57Bl/6 female mouse; details: 50 mpk bid, po; scored at day five; average of n studies
Description: The study of angiogenesis depends on a reliable and reproducible model for the stimulation and inhibition of a neovascular response. The corneal micropocket assay provides such a model of angiogenesis in the cornea of a mouse. See, A Model of Angiogenesis in the Mouse Cornea; Kenyon, BM, et al., Investigative Ophthalmology & Visual Science, July 1996, Vol. 37, No. 8.
In this assay, uniformLy sized Hydron™ pellets containing bFGF and sucralfate were prepared and surgically implanted into the stroma mouse cornea adjacent to the temporal limbus. […]
Mice were dosed on a daily basis for the duration of the assay. […] At day five, the degree of angiogenic inhibition was scored by viewing the neovascular progression with a slit lamp microscope.
The mice were anesthetized and the studied eye was once again proptosed. The maximum vessel length of neovascularization, extending from the limbal vascular plexus toward the pellet was measured. In addition, the contiguous circumferential zone of neovascularization was measured as clock hours, where 30 degrees of arc equals one clock hour. The area of angiogenesis was calculated as follows. […]
Five to six mice were utilized for each compound in each study. The studied mice were thereafter compared to control mice and the difference in the area of neovascularization was recorded as an averaged value. […]

[8] = system: PC-3 human pancreatic cancer cells (ATCC CRL 1435); test: In vivo PC-3 tumor reduction; set-up: species or system Balb/c nu/nu mice; details: day 0 to day 25-30, average of n studies
Description: PC-3 human pancreatic cancer eclls (ATCC CRL 1435) were grown to 90% confluence in F12/MEM (Gibco) containing 7% FBS (Gibco). Cells were mechanically harvested using a rubber scraper, and then washed twice with cold medium. The resulting cells were resuspended in cold medium with 30% matrigel (Collaborative Research) and the cell-containing medium was maintained on ice until used.
Balb/c nu/nu mice at 7-9 weeks of age were anesthetized with avertin [2,2,2-tribromethanol/t-amyl alcohol (1 g/l mL) diluted 1:60 into phosphate-buffered sline] and 3-5×10^6 of the above cells in 0.2 mL of medium were injected into the left flank of each mouse. Cells were injected in the morning, whereas dosing with an inhibitor began at 6 PM. The animals were gavaged BID from day zero (cell injection day) to day 25-30, at which time the animals were euthanized and tumors weighed.
Compounds were dosed at 10 mg/mL in 0.5% methylcellulose/0.1% polysorbate 80 to provide a 50 mg/kg (mpk) dose twice each day, or diluted to provide a 10 mg/kg (mpk) dose twice each day. Tumor measurements began on day 7 and continued every third or fourth day until completion of the study. Groups of ten mice were used in each study and nine to ten survived. Each group of mice so studied constitutes an “n” value of one, so that “n” values greater than one represent multiple studies whose averaged result is provided in the table. […]

Row | SMILES | MTS Toxicity TD50 [1] [µM] | IC50 [2] [µM] | further results
1 | Cl.O=C(NO)C1(S(=O)(=O)c2ccc(Oc3ccccc3)cc2)CCNCC1 [Example 4, N-hydroxy-4-[(4-phenoxyphenyl)sulfonyl]-4-piperidinecarboxamide] | >100 | > 100 | 
2 | C#CCN1CCC(C(=O)NO)(S(=O)(=O)c2ccc(Oc3ccccc3)cc2)CC1.Cl [Example 6, N-hydroxy-4-[(4-phenoxyphenyl)sulfonyl]-1-(2-propynyl)-4-piperidinecarboxamide] | >100 | > 100 | 
3 | C#CCN1CCC(C(=O)NO)(S(=O)(=O)c2ccc(Sc3ccccc3)cc2)CC1.Cl [Example 9, N-hydroxy-4-([4-(phenylthio)phenyl]sulfonyl]-1-(2-propynyl)-4-piperidinecarboxamide] | >100 | > 100 | 
4 | C#CCN1CCC(C(=O)NO)(S(=O)(=O)c2ccc(Oc3ccc4c(c3)OCO4)cc2)CC1.Cl [Example 10, 4-[[4-(1,3-benzodioxol-5-yloxy)phenyl]sulfonyl]-N-hydroxy-1-(2-propynyl)-4-piperidinecarboxamide] | >100 | > 100 | 
5 | C#CCN1CCC(C(=O)NO)(S(=O)(=O)c2ccc(SC3CCCCC3)cc2)CC1.Cl [Example 13, 4-[[4-(cyclohexylthio)-phenyl]sulfonyl]-N-hydroxy-1-(2-propynyl)-4-piperidinecarboxamide] | >100 | > 100 | 
6 | Cl.O=C(NO)C1(S(=O)(=O)c2ccc(Sc3ccc(F)cc3)cc2)CCN(C2CC2)CC1 [Example 27, 1-cyclopropyl-4-[[4-[(4-fluorophenyl)thio]phenyl]sulfonyl]-N-hydroxy-4-piperidinecarboxamide] | 100 | > 100 | 
7 | COCCN1CCC(C(=O)NO)(S(=O)(=O)c2ccc(Sc3ccccc3)cc2)CC1.Cl [Example 35, N-hydroxy-1-(2-methoxyethyl)-4-[[4-(phenylthio)phenyl]-sulfonyl]-4-piperidinecarboxamide, monohydrochloride] | >100 | > 100 | 
8 | O=C(NO)C1(S(=O)(=O)c2ccc(Oc3ccc(OC(F)(F)F)cc3)cc2)CCOCC1 [Example 69] | 100 | > 100 | Blood Level @ 3 min (rat, in vivo, 20 mg/kg): 44000 ng/mL; BA (rat, in vivo, po, 20 mg/kg): 35.9%; Blood Level @ 6 hr (rat, in vivo, po, 20 mg/kg): 1172 ng/mL
9 | Cc1cc(Oc2ccc(S(=O)(=O)C3(C(=O)NO)CCNCC3)cc2)ccc1Cl.Cl [Example 79, 4-[[4-(4-chloro-3-methylphenoxy)phenyl]sulfonyl]-N-hydroxy-4-piperidinecarboxamide, monohydrochloride] |  |  | AUC (0-∞) (Rat Intraveneous, 20 mpk): 6110 ng·h/mL; t1/2 (Rat Intraveneous, 20 mpk): 1.82 h; Blood Level @ 3 min (Rat Intraveneous, 20 mpk, 3 min): 13990 ng/mL; AUC (0-6 hr) (Rat Oral, 20 mpk): 70 ng·h/mL; BA (Rat Oral, 20 mpk): 1.1%; Cmax (Rat Oral, 20 mpk): 20 ng/mL; Blood Level @ 6 hr (Rat Oral, 20 mpk, 6 hr): 10 ng/mL; IC50 [3]: > 10 µM; IC50 [4]: 0.0017 µM; IC50 [5]: 0.001 µM
10 | O=C(NO)C1(S(=O)(=O)c2ccc(Sc3ccccc3)cc2)CCOCC1 [Example 95, Tetrahydro-N-hydroxy-4-[[4-(phenylthio)phenyl]sulfonyl]-2H-pyran-4-carboxamide] | >100 | > 100 | t1/2 (Rat Intraveneous, 20 mpk): 1.06 h
11 | O=C(NO)C1(S(=O)(=O)c2ccc(Oc3ccc(C(F)(F)F)cc3)cc2)CCOCC1 [Example 379] | 80 | > 100 | t1/2 (Rat Intraveneous, 20 mpk): 1.74 h
12 | CNC(=O)[C@@H](NC(=O)[C@H](CC(C)C)[C@H](O)C(=O)NO)C(C)(C)C [marimastat] |  |  | most common drug-related toxicity ([6]; clinical trials): musculoskeletal pain and stiffness; cancer-specific antigens used as surrogate markers for biological activity ([6]; patients with advanced solid tumor cancers): dose-related reduction in the rise of cancer-specific antigens; Inhibition of Angiogenesis (area of neovascularization vs control) [7]: 48 (n = 6) percent; Average Percentage Reduction In Tumor Weight ([8]; 10 mpk BID gavage): <5%; Average Percentage Reduction In Tumor Weight ([8]; 50 mpk BID gavage): 39 (n = 2) percent
